Our source for the % of control, % of inhibition and % activity values is ChEMBL document CHEMBL5465560, “Selectivity Literature for EUbOPEN Chemogenomic Library” (2024).

In test [1] the target is Tyrosine-protein kinase Fyn (Homo sapiens) (UniProt P06241). Briefly: Selectivity interaction (Kinase panel (Z-LYTE Assay)) EUB0001632a FYN. The note with it: at 10 µM.
Test [2] concerns the target T1, Serine/threonine-protein kinase D3 (Homo sapiens) (UniProt O94806).
T1 sequence (whole entry): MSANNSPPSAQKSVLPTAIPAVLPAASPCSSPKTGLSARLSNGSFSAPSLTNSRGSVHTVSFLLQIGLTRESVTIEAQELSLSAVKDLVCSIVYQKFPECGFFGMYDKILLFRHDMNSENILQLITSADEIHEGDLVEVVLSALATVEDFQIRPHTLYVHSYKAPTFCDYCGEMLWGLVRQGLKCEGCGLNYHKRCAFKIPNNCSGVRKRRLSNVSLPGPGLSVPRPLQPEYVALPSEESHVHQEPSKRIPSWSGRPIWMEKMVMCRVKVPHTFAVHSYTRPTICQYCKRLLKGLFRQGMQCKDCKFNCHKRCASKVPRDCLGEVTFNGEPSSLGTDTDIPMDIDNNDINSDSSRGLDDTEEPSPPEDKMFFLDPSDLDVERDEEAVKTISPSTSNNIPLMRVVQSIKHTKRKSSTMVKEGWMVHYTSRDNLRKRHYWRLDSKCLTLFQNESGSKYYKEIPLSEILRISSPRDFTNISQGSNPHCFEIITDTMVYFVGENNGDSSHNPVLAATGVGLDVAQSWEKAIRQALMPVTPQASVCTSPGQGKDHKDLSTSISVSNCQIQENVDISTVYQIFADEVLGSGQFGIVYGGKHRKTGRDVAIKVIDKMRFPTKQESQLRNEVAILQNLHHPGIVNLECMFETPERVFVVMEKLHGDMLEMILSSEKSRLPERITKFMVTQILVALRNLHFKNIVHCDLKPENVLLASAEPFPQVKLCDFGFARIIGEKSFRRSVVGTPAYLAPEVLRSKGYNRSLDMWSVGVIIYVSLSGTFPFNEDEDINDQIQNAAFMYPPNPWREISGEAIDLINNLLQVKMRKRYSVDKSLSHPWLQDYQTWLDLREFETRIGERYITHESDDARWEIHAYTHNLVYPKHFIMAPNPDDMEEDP
The note with it: at 10 µM.

For test [3], the target named is T2, Dual specificity mitogen-activated protein kinase kinase 5 (Homo sapiens) (UniProt Q13163).
T2 sequence (whole entry): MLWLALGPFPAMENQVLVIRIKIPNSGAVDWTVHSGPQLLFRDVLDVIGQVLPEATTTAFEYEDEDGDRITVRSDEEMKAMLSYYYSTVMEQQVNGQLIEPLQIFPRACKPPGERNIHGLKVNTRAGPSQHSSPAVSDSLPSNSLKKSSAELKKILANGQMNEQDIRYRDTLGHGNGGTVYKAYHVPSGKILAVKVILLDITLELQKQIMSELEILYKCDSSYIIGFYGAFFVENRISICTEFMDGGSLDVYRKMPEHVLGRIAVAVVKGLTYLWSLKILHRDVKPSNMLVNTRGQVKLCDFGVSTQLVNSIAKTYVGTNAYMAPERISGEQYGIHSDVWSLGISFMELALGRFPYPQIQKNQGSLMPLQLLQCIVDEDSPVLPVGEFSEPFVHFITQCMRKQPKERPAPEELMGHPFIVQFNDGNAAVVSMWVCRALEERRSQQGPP
The note with it: at 10 µM.

The target of test [4] is Wee1-like protein kinase 2 (Homo sapiens) (UniProt P0C1S8). The note with it: at 10 µM.
Test [5] addresses T3, Tyrosine-protein kinase Tec (Homo sapiens) (UniProt P42680).
T3 sequence (whole entry): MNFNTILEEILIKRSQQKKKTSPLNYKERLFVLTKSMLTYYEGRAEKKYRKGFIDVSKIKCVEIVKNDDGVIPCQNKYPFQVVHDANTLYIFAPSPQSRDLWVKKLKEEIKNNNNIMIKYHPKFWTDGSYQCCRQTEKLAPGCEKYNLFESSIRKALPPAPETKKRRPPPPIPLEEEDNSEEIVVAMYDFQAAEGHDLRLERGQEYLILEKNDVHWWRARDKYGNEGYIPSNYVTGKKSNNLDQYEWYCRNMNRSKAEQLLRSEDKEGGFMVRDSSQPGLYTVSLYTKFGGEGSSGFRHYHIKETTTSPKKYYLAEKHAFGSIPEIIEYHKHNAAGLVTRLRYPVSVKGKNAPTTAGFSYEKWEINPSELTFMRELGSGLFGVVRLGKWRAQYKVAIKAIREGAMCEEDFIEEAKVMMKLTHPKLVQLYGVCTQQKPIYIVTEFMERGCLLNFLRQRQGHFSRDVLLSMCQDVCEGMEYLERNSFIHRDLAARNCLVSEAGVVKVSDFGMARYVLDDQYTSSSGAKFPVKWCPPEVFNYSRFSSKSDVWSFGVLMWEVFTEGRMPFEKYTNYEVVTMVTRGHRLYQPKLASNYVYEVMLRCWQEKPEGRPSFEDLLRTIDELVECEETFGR
The note with it: at 10 µM.

Test [6] deals with Cyclin-dependent kinase 4/cyclin D1 (Homo sapiens) (UniProt P11802+P24385). Briefly: (§1) Selectivity interaction (KinomeScan (DiscoverX)) EUB0000666a CDK4. The test is classed as protein-complex assay. The note with it: at 10 µM.
The target in test [7] is CDK4/Cyclin D3 (Homo sapiens) (UniProt P11802+P30281). Described as §1. The test is classed as protein-complex assay. The note with it: at 10 µM.
Test [8] concerns the target Serine/threonine-protein kinase SIK3 (Homo sapiens) (UniProt Q9Y2K2). Briefly: Selectivity interaction (KinomeScan (DiscoverX)) EUB0000655a SIK3. The note with it: at 10 µM.
Test [9] has as its target Tyrosine-protein kinase BTK (Homo sapiens, UniProt Q06187). Briefly: Selectivity interaction (ActivX KiNativ screen (ex vivo kinase selectivity in human PBMCs)) EUB0001619a BTK. The format is cell-based. The note with it: PBMC, at 1 µM.
Test [10] concerns the target Tyrosine-protein kinase Lyn (Homo sapiens, UniProt P07948). Briefly: Selectivity interaction (ActivX KiNativ screen (kinase selectivity in THP-1 cell lysates)) EUB0000639a LYN. The format is subcellular. The note with it: lysate, at 0.2 µM.
Test [11] has as its target T3, Tyrosine-protein kinase Tec (Homo sapiens). Briefly: Selectivity interaction (ProQinase) EUB0000171b TEC.
In test [12] the target is Histone-lysine N-methyltransferase SETD2 (Homo sapiens) (UniProt Q9BYW2). Briefly: Selectivity interaction (Transferase panel (protein, RNA, and DNA methyltransferases. and EP300 (acetyltransferase))) EUB0000270b SETD2.
Test [13] concerns the target Homeodomain-interacting protein kinase 2 (Homo sapiens, UniProt Q9H2X6). Briefly: Selectivity interaction (KinomeScan (DiscoverX)) EUB0000045b HIPK2.
In test [14] the target is Tyrosine-protein kinase ABL2 (Homo sapiens, UniProt P42684). Briefly: Selectivity interaction (Upstate Kinase Profiler service (Millipore)) EUB0000056c ABL2. The note with it: at 1 µM.

Chain of Histone-lysine N-methyltransferase SETD2 (Homo sapiens) (Q9BYW2 whole entry): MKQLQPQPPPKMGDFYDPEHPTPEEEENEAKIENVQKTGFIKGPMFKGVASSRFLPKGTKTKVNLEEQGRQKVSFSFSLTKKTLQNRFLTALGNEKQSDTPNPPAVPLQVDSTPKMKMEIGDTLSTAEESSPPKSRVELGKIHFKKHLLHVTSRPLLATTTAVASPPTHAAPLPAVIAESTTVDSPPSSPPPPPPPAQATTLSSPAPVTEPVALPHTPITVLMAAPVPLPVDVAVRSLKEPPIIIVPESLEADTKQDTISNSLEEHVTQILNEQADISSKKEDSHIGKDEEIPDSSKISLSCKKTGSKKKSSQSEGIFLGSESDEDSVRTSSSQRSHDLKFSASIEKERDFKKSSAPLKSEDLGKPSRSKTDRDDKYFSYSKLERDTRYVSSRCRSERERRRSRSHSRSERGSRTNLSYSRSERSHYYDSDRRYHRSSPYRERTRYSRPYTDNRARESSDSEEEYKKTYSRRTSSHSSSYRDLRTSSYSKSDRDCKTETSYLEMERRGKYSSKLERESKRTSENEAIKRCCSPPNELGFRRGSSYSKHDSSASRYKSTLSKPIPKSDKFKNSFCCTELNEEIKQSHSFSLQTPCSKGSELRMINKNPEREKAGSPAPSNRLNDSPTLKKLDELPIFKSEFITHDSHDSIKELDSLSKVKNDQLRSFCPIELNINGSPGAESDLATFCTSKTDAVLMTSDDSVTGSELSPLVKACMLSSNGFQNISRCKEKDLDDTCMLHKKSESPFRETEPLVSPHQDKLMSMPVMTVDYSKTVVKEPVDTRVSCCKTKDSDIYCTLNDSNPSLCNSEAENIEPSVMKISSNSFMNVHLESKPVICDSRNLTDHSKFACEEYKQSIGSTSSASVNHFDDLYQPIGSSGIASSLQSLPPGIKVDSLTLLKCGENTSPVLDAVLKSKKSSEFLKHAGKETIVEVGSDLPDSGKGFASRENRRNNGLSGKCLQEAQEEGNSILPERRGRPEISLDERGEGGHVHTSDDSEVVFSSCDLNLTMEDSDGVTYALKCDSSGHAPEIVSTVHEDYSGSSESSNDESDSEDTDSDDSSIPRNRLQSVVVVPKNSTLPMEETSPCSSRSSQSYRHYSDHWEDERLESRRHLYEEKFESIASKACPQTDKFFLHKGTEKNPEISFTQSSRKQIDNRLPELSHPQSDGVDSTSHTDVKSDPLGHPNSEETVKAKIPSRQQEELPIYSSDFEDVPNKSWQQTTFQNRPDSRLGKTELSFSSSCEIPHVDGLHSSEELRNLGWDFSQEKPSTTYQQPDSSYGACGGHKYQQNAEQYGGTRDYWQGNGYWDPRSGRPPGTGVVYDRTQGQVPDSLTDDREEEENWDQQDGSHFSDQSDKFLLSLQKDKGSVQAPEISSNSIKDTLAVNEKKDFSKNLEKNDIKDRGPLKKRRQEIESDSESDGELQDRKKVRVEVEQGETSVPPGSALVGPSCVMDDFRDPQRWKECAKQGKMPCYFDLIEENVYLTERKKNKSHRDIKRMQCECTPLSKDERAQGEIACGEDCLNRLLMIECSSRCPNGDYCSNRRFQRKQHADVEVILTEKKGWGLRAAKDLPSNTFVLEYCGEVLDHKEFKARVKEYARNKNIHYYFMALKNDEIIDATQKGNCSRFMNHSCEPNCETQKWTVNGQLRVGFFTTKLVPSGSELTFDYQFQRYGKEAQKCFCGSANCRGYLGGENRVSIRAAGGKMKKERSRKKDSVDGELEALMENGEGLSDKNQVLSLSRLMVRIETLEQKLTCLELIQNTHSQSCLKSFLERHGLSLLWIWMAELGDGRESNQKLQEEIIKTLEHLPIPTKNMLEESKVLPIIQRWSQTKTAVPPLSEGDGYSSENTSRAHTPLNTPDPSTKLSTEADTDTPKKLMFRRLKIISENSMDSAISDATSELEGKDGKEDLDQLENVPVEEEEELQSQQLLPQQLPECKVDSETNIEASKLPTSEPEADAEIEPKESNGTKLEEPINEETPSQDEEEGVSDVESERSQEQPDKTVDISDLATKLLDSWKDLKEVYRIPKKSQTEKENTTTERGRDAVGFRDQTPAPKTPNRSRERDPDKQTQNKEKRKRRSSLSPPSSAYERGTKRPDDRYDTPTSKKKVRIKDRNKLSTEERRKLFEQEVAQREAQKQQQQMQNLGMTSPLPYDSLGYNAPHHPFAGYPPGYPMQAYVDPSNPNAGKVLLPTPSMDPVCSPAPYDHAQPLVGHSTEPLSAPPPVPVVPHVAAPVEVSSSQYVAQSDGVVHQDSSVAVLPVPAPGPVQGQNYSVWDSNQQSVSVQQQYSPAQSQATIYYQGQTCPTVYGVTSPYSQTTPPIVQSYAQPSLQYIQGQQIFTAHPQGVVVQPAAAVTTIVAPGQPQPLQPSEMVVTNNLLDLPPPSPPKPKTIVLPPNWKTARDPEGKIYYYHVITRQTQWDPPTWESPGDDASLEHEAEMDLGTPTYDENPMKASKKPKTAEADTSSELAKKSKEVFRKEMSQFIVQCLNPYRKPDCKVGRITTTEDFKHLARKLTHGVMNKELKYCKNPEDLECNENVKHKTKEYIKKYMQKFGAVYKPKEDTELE
Chain of Homeodomain-interacting protein kinase 2 (Q9H2X6 whole entry, looked up): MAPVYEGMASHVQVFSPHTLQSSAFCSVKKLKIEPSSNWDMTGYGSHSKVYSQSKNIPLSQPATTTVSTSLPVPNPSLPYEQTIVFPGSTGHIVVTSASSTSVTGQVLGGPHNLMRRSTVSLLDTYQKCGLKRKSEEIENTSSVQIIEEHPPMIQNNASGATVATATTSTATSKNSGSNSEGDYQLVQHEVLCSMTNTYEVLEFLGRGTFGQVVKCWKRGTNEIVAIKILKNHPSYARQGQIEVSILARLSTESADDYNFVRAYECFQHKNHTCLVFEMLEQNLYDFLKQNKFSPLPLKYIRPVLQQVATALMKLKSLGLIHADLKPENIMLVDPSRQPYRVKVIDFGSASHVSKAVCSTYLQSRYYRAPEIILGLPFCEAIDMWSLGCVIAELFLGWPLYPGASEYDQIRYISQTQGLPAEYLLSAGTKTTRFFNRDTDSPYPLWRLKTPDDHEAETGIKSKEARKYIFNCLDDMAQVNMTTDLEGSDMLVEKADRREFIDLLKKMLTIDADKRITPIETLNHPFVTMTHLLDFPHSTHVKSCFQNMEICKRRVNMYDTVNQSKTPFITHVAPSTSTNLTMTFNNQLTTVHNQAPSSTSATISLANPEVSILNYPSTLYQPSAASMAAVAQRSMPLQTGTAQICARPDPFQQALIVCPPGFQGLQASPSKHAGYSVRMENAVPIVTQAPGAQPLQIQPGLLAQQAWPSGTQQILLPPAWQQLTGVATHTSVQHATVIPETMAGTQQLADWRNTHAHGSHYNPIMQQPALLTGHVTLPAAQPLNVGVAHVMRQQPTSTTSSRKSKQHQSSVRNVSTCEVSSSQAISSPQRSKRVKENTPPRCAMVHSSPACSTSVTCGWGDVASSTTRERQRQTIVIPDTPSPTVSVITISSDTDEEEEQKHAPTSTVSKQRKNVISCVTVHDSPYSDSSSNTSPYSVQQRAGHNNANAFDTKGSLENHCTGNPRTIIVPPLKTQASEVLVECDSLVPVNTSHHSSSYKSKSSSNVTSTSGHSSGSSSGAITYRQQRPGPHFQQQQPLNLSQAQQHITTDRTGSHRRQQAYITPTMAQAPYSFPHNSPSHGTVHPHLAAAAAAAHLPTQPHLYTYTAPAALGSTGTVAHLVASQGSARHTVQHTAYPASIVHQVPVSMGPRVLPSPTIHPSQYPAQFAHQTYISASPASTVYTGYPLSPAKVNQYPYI
Chain of Tyrosine-protein kinase Fyn (Homo sapiens) (P06241 2-537 limits assumed): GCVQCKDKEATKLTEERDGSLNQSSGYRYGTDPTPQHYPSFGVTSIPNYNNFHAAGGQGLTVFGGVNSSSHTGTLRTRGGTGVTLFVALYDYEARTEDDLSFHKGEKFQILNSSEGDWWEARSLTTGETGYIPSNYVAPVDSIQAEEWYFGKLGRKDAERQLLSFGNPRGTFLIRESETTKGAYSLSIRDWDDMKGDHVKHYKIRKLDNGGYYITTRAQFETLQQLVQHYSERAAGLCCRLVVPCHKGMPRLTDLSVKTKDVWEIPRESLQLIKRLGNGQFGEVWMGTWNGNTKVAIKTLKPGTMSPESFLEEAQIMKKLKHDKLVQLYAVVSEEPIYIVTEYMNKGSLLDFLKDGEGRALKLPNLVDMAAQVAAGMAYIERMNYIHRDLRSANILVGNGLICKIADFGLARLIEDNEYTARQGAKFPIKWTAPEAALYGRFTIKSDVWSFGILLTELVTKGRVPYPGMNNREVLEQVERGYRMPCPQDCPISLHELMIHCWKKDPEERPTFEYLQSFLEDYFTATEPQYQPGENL
Chain of Tyrosine-protein kinase BTK (Q06187 whole entry): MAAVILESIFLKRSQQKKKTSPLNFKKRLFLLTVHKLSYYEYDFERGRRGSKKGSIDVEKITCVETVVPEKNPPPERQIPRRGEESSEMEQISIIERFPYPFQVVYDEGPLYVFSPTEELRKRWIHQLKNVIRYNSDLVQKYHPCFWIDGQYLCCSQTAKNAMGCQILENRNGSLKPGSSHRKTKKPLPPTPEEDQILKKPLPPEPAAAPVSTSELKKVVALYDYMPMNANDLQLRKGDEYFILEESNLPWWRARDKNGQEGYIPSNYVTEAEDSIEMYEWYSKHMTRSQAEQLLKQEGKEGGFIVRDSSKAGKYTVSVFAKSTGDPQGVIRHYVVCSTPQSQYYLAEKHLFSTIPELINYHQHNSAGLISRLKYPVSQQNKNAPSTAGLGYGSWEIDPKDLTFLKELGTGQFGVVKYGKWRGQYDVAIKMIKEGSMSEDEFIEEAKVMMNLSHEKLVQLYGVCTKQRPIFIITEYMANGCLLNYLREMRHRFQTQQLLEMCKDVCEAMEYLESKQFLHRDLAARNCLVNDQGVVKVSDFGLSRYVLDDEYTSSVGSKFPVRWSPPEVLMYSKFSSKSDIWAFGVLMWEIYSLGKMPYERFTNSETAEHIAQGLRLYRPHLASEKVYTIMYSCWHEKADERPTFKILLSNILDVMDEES

The compound `Cn1cc(-n2cnc3c(NCc4nc5cc(Cl)c(Cl)cc5[nH]4)nc(N4CCOCC4)nc32)cn1` yielded a % of control in test [1] of 1.52%.

With `Cc1cc([C@@H](C)Nc2ccccc2C(=O)O)c2nc(N3CCOCC3)cc(=O)n2c1` [AZD-6482], the % of control in test [2] worked out at 100%; in test [3] it was 100%; in [4], 100%; in [5], 91%.

For the compound `O=C(NOC[C@H](O)CO)c1ccc(F)c(F)c1Nc1ccc(I)cc1F`, the % of control in test [6] was found to be 93%; in test [7], 84%.

For `CN(C)CCOc1ccc(-c2nc(-c3ccncc3)c(-c3ccc4c(c3)CC/C4=N\O)[nH]2)cc1`, the % of control in test [8] was 100%.

In the case of `N#Cc1cccc(-c2c[nH]c3ncnc(N4CCOCC4)c23)c1`, the % of inhibition in [9] came out at 13%.

On to `CC[C@@H]1[C@H](F)C(=O)N[C@@H]1COc1nccc2cc(C(N)=O)c(OC)cc12` [ZIMLOVISERTIB], for which the % of inhibition in [10] came out at 0%.

For `C=CC(=O)Nc1cccc(C(=O)Nc2ccc(Nc3cc(-c4[nH]c(SC)nc4C)ccn3)cc2)c1`, the % of control in test [11] (at 1 µM) is 99%; in test [11] (at 5 µM) it was 81%.

With `Cc1cc(CN)cc(C)c1-c1ncn(C)c1-c1cncn1C`, the values for the % activity in [12] (at 1 µM) and in test [12] (at 10 µM) were above 90% and above 80%, respectively.

On to `C=CC(=O)Nc1cc(-n2c(=O)ccc3cnc4ccc(-c5ccc(NS(C)(=O)=O)cc5)cc4c32)ccc1C`, for which the % of control in [13] (at 1 µM) and in test [13] (at 10 µM) was 100% in each case.

Consider `Cc1ccc(-c2ccc3c(ccc4sc5c(c43)NC[C@@H](C)NC5=O)n2)cn1`, for which, in test [14], the % of inhibition was 13%.
